# Reference: patent US11439707B2, “Hypocrellin derivative substituted both in a peri-position and in 2-position by amino, preparation method, and application thereof” (priority 2017, dated 2022)
# Columns and labels:
# [1] = singlet oxygen efficiency test, reference rose bengal; assay type: physicochemical
# [2] = absorption spectrum (maximum absorption wavelength, molar extinction coefficient); assay type: physicochemical
SMILES,singlet oxygen yield [1],maximum absorption wavelength [2],molar extinction coefficient [2]
COCCOC(=O)C1CCC(Nc2c(NC3CCC(C(=O)OCCOC)C3)c3c(=O)cc(OC)c4c5c(OC)cc(=O)c6c(O)c(OC)c7c(c(c2C=C(C)C7C(C)=O)c34)c65)C1 (stereo not drawn) [HB-19a-PEG1],32%,624 nm,"30,500 M^−1cm^−1"
COCCOCCOCCOCCOCCOCCOCCOCCOCCOCCOCCOCCOCCC(=O)N1CCC(CNc2c3c4c5c(c(OC)c(=O)c6c(NCC7CCN(C(=O)CCOCCOCCOCCOCCOCCOCCOCCOCCOCCOCCOCCOCCOC)CC7)cc(OC)c(c7c(OC)c(Br)c(O)c(c2=O)c47)c65)C(C(C)=O)C(C)=C3)CC1 (stereo not drawn) [HB-31d-Br-PEG12],33%,632 nm,"31,500 M^−1cm^−1"
COCCOCCC(=O)OCCOCCNc1c2c3c4c(c(OC)c(=O)c5c(O)cc(OC)c(c6c(OC)cc(NCCOCCOC(=O)CCOCCOC)c(c1=O)c63)c54)CC(C)=C2 [HC-1c-PEG1],34%,625 nm,"32,500 M^−1cm^−1"
COc1c(O)c2c(=O)cc(OC)c3c4c(OC)cc(=O)c5c(NC6CCC(C(=O)O)CC6)c(NC6CCC(C(=O)O)CC6)c6c(c(c1C(C(C)=O)C(C)=C6)c23)c54 (stereo not drawn) [HB-14a],25%,625 nm,"27,000 M^−1cm^−1"
COCCOCCOCCOCCOCCOCCOC(=O)C1CCC(Nc2c(O)c3c(=O)cc(OC)c4c5c(OC)cc(=O)c6c(NC7CCC(C(=O)OCCOCCOCCOCCOCCOCCOC)CC7)c(OC)c7c(c(c2C=C(C)C7C(C)=O)c34)c65)CC1 (stereo not drawn) [HB-14b-PEG6],34%,624 nm,"30,500 M^−1cm^−1"
COCCOCCOCCOCCOCCOCCOCCOCCOCCOCCOCCOCCOC(=O)CCCCCNc1c2c3c4c(c(OC)c(=O)c5c(NCCCCCC(=O)OCCOCCOCCOCCOCCOCCOCCOCCOCCOCCOCCOCCOC)cc(OC)c(c6c(OC)cc(O)c(c1=O)c63)c54)CC(C)=C2 [HC-9d-PEG12],32%,625 nm,"31,500 M^−1cm^−1"
COc1c2c3c4c(c(NCC5CCC(C(=O)OCCCC[P+](c6ccccc6)(c6ccccc6)c6ccccc6)CC5)c(=O)c5c(O)cc(OC)c(c6c(OC)cc(NCC7CCC(C(=O)OCCCC[P+](c8ccccc8)(c8ccccc8)c8ccccc8)CC7)c(c1=O)c63)c54)C=C(C)C2 (stereo not drawn) [HC-30d-C4-PPh3^+],31%,630 nm,"32,500 M^−1cm^−1"
COc1c(O)c2c(=O)cc(OC)c3c4c(OC)cc(=O)c5c(NCc6cccc[n+]6C)c(NCc6cccc[n+]6C)c6c(c(c1C(C(C)=O)C(C)=C6)c23)c54 (stereo not drawn) [HB-38a-N^+],18%,620 nm,"22,000 M^−1cm^−1"
COCCOCCOCCOCCOCCOCCOCCOCCOCCOCCOCCOCCOC(=O)CCCNc1c2c3c4c(c(OC)c(=O)c5c(O)cc(OC)c(c6c(OC)cc(NCCCC(=O)OCCOCCOCCOCCOCCOCCOCCOCCOCCOCCOCCOCCOC)c(c1=O)c63)c54)C(C(C)=O)C(C)=C2 (stereo not drawn) [HB-8c-PEG12],36%,628 nm,"33,000 M^−1cm^−1"
COCCOCCOCCOCCOCCOCCOCCN1CCC(CNc2c(O)c3c(=O)cc(OC)c4c5c(OC)cc(=O)c6c(NCC7CCN(CCOCCOCCOCCOCCOCCOCCOC)CC7)c(OC)c7c(c(c2C=C(C)C7C(C)=O)c34)c65)CC1 (stereo not drawn) [HB-32b-PEG6],38%,622 nm,"31,000 M^−1cm^−1"
COCCOCCOCCOCCOCCOCCOC(=O)CCCNc1c2c3c4c(c(OC)c(=O)c5c(O)cc(OC)c(c6c(OC)cc(NCCCC(=O)OCCOCCOCCOCCOCCOCCOC)c(c1=O)c63)c54)C(C(C)=O)C(C)=C2 (stereo not drawn) [HB-8c-PEG6],34%,630 nm,"32,500 M^−1cm^−1"
COC(=O)C(CO)Nc1c(O)c2c(=O)cc(OC)c3c4c(OC)cc(=O)c5c(NC(CO)C(=O)OC)c(OC)c6c(c(c1C=C(C)C6C(C)=O)c23)c54 (stereo not drawn) [HB-24b],20%,621 nm,"21,500 M^−1cm^−1"
COC(=O)C1CCC(CNc2c3c4c5c(c(OC)c(=O)c6c(O)cc(OC)c(c7c(OC)cc(NCC8CCC(C(=O)OC)CC8)c(c2=O)c74)c65)C(C(C)=O)C(C)=C3)CC1 (stereo not drawn) [HB-13c-AcE],30%,621 nm,"28,500 M^−1cm^−1"
COc1c2c3c4c(c(NCCC5CCC(O)CC5)c(=O)c5c(O)cc(OC)c(c6c(OC)cc(NCCC7CCC(O)CC7)c(c1=O)c63)c54)C=C(C)C2C(C)=O (stereo not drawn) [HC-18d],20%,622 nm,"23,500 M^−1cm^−1"
COc1c(O)c2c(=O)cc(OC)c3c4c(OC)cc(=O)c5c(NC(CC(=O)O)C(=O)O)c(NC(CC(=O)O)C(=O)O)c6c(c(c1C(C(C)=O)C(C)=C6)c23)c54 (stereo not drawn) [HB-27a],18%,621 nm,"20,500 M^−1cm^−1"
COc1c2c3c4c(c(NCC(=O)O)c(=O)c5c(NCCCC(=O)O)cc(OC)c(c6c(OC)cc(O)c(c1=O)c63)c54)C=C(C)C2C(C)=O (stereo not drawn) [HB-43c],30%,626 nm,"26,500 M^−1cm^−1"

SMILES,singlet oxygen yield [1],maximum absorption wavelength [2],molar extinction coefficient [2]
COc1c2c3c4c(c(NC(CS)C(=O)O)c(=O)c5c(NC(CS)C(=O)O)cc(OC)c(c6c(OC)cc(O)c(c1=O)c63)c54)C=C(C)C2C(C)=O (stereo not drawn) [HB-25c],20%,632 nm,"21,500 M^−1cm^−1"
COc1c(NCCCCCC(=O)O)c2c(=O)cc(OC)c3c4c(OC)cc(=O)c5c(O)c(NCCCCCC(=O)O)c6c(c(c1CC(C)=C6)c23)c54 [HC-9b],24%,622 nm,"27,500 M^−1cm^−1"
COc1c2c3c4c(c(NCC[N+]56CC[N+](C)(CC5)CC6)c(=O)c5c(NCC[N+]67CC[N+](C)(CC6)CC7)cc(OC)c(c6c(OC)cc(O)c(c1=O)c63)c54)C=C(C)C2C(C)=O (stereo not drawn) [HB-41c],35%,621 nm,"33,500 M^−1cm^−1"
COc1c(O)c2c(=O)cc(OC)c3c4c(OC)cc(=O)c5c(NCCCC(=O)O)c(NCC(=O)O)c6c(c(c1C(C(C)=O)C(C)=C6)c23)c54 (stereo not drawn) [HB-43a],28%,613 nm,"26,500 M^−1cm^−1"
COc1c2c3c4c(c(NC(C(=O)O)C(C)C)c(=O)c5c(NC(C(=O)O)C(C)C)cc(OC)c(c6c(OC)cc(O)c(c1=O)c63)c54)C=C(C)C2C(C)=O (stereo not drawn) [HB-22c],22%,620 nm,"21,500 M^−1cm^−1"
COc1c2c3c4c(c(NCCCC(=O)NCCCCCC[N+](C)(C)C)c(=O)c5c(NCCCC(=O)NCCCCCC[N+](C)(C)C)cc(OC)c(c6c(OC)cc(O)c(c1=O)c63)c54)C=C(C)C2 [HC-8c-NH—C6-N^+],36%,634 nm,"32,000 M^−1cm^−1"
COCCOCCOCCOCCOC(=O)C1CCC(CNc2c(O)c3c(=O)cc(OC)c4c5c(OC)cc(=O)c6c(NCC7CCC(C(=O)OCCOCCOCCOCCOC)CC7)c(OC)c7c(c(c2C=C(C)C7)c34)c65)CC1 (stereo not drawn) [HC-13b-PEG4],32%,624 nm,"30,000 M^−1cm^−1"
COc1c(NCCS(=O)(=O)OC)c2c(=O)cc(OC)c3c4c(OC)cc(=O)c5c(O)c(NCCS(=O)(=O)OC)c6c(c(c1C(C(C)=O)C(C)=C6)c23)c54 (stereo not drawn) [HB-12b],22%,621 nm,"22,500 M^−1cm^−1"
COc1c(NCCCC(=O)NCCCC[N+](C)(C)C)c2c(=O)cc(OC)c3c4c(OC)cc(=O)c5c(O)c(NCCCC(=O)NCCCC[N+](C)(C)C)c6c(c(c1CC(C)=C6)c23)c54 [HC-8b-NH—C4-N^+],32%,626 nm,"30,500 M^−1cm^−1"
COCCOCCOCCOCCOCCNC(=O)C1CCC(CNc2c(O)c3c(=O)cc(OC)c4c5c(OC)cc(=O)c6c(NCC7CCC(C(=O)NCCOCCOCCOCCOCCOC)CC7)c(OC)c7c(c(c2C=C(C)C7)c34)c65)CC1 (stereo not drawn) [HC-13b-NH-PEG4],32%,624 nm,"30,000 M^−1cm^−1"
COc1c(O)c2c(=O)cc(OC)c3c4c(OC)cc(=O)c5c(NCCC(=O)NCCN6CCOCC6)c(NCCC(=O)NCCN6CCOCC6)c6c(c(c1C(C(C)=O)C(C)=C6)c23)c54 (stereo not drawn) [HB-42a],33%,620 nm,"32,500 M^−1cm^−1"
COc1c2c3c4c(c(NCCOCCO)c(=O)c5c(O)cc(OC)c(c6c(OC)cc(NCCOCCO)c(c1=O)c63)c54)C=C(C)C2C(C)=O (stereo not drawn) [HB-1d],35%,622 nm,"30,000 M^−1cm^−1"
COc1c(NCS(=O)(=O)O)c2c(=O)cc(OC)c3c4c(OC)cc(=O)c5c(O)c(NCCCS(=O)(=O)O)c6c(c(c1CC(C)=C6)c23)c54 [HC-45b],20%,618 nm,"21,500 M^−1cm^−1"
COc1c(NC(C(=O)O)C(C)C)c2c(=O)cc(OC)c3c4c(OC)cc(=O)c5c(O)c(NC(C(=O)O)C(C)C)c6c(c(c1C(C(C)=O)C(C)=C6)c23)c54 (stereo not drawn) [HB-22b],19%,618 nm,"21,000 M^−1cm^−1"
COc1c2c3c4c(c(NCCOC(=O)N5CC(=O)NC(=O)C5)c(=O)c5c(O)cc(OC)c(c6c(OC)cc(NCCOC(=O)N7CC(=O)NC(=O)C7)c(c1=O)c63)c54)C=C(C)C2C(C)=O (stereo not drawn) [HB-40d],30%,628 nm,"31,500 M^−1cm^−1"
COCCOCCOCCOCCOCCOCCOC(=O)CCCCCNc1c2c3c4c(c(OC)c(=O)c5c(O)cc(OC)c(c6c(OC)cc(NCCCCCC(=O)OCCOCCOCCOCCOCCOCCOC)c(c1=O)c63)c54)CC(C)=C2 [HC-9c-PEG6],36%,628 nm,"33,000 M^−1cm^−1"
